# Measured values published in patent publication US9757415B2, “Composition comprising solanum glaucophyllum for preventing and/or treating hypocalcaemia and for stabilizing blood calcium levels” (HERBONIS AG, priority 2009, dated 2017).
# What was measured:
# cows = assay: In vivo experiment, single oral bolus in cows: serum calcium and phosphate
# Text: The control group only received pectin.
# in vivo = settings: female, brown, Fleckvieh and Holstein, cow, serum, po, 500 ng
# Method: Twenty-five cows of the races brown, Fleckvieh and Holstein of a weight of approximately 500-600 kg weight and including lactating and non-lactating subjects were allocated to 5 treatment groups as detailed in Table 6 blow. The animals were given a single dose of the test preparation orally per bolus. Blood was taken at time 0 (before application) and at days 1, 2, 3, 4, 5, 7, 9 and 11 following application. From the blood, serum was prepared and calcium (total), phosphate and 1,25-(OH)2 vitamin D3 was analyzed according to established clinico-chemical methods.
# Treatment: all test preparations were applied to the animal as one single bolus in a gelatine capsule (length 7 cm, diameter 2.2 cm and volume 24 mL, Capsula GmbH, Ratingen, Germany) with the aid of a usual bolus applicator. The volume that was not filled with tablets was filled up with pectin as inert excipient. The control group only received pectin.
# The boluses contained, in accordance with the treatment group, instant release tablets as described in Example 3 (groups 2 and 4) and retard release tablets as prepared in Example 4 (groups 1 and 4).
# [1] = day 0 (before application), n = 5, single oral bolus
# [2] = day 2, n = 5, single oral bolus
# [3] = day 3, n = 5, single oral bolus
# [4] = day 4, n = 5, single oral bolus
# [5] = day 5, n = 5, single oral bolus
# [6] = day 7, n = 5, single oral bolus
# [7] = day 9, n = 5, single oral bolus
# [8] = day 11, n = 5, single oral bolus
compound,measurement,setting,value
"C=C1/C(=C\C=C2/CCC[C@]3(C)[C@@H]([C@H](C)CCCC(C)(C)O)CC[C@@H]23)C[C@@H](O)C[C@@H]1O [Group 3, 1,25-dihydroxyvitamin D3]",Serum calcium (mean ± standard deviation),cows; [1],2.40 ± 0.2 ^ mmol/L
same,Serum phosphate (mean ± standard deviation),cows; [1],2.30 ± 0.07 mmol/L
same,Serum calcium (mean ± standard deviation),"cows; day 1, n = 5, single oral bolus",2.64 ± 0.05 E mmol/L
same,Serum calcium (mean ± standard deviation),cows; [2],2.67 ± 0.09 Ed mmol/L
same,Serum phosphate (mean ± standard deviation),cows; [2],2.81 ± 0.25 ED mmol/L
same,Serum calcium (mean ± standard deviation),cows; [3],2.72 ± 0.09 E mmol/L
same,Serum phosphate (mean ± standard deviation),cows; [3],3.05 ± 0.19 Ed mmol/L
same,Serum calcium (mean ± standard deviation),cows; [4],2.72 ± 0.06 E mmol/L
same,Serum phosphate (mean ± standard deviation),cows; [4],3.24 ± 0.34 E mmol/L
same,Serum calcium (mean ± standard deviation),cows; [5],2.61 ± 0.02 E mmol/L
same,Serum phosphate (mean ± standard deviation),cows; [5],2.60 ± 0.32 E mmol/L
same,Serum calcium (mean ± standard deviation),cows; [6],2.57 ± 0.06 e^ mmol/L
same,Serum phosphate (mean ± standard deviation),cows; [6],2.43 ± 0.23 e mmol/L
same,Serum calcium (mean ± standard deviation),cows; [7],2.56 ± 0.09 ^ mmol/L
same,Serum phosphate (mean ± standard deviation),cows; [7],2.05 ± 0.44 mmol/L
same,Serum calcium (mean ± standard deviation),cows; [8],2.45 ± 0.02 ^ mmol/L
same,Serum phosphate (mean ± standard deviation),cows; [8],2.10 ± 0.16 mmol/L
same,concentration at 0 day,in vivo,0.02 ng/mL
same,concentration at 1 day,in vivo,0.243 ng/mL
same,concentration at 2 day,in vivo,0.15 ng/mL
same,concentration at 3 day,in vivo,0.056 ng/mL
same,concentration at 4 day,in vivo,0.04 ng/mL
same,concentration at 5 day,in vivo,0.046 ng/mL
same,concentration at 7 day,in vivo,0.03 ng/mL
same,concentration at 9 day,in vivo,0.023 ng/mL
same,concentration at 11 day,in vivo,0.025 ng/mL
